Experiments:
MV4-11 cells = test: MV4-11 cellular proliferative assay, Assay Format A (CellTiter-Glo, 120 h); assay type: cell-based; conditions: Homo sapiens, Assay format A, 120 h, read-out: IC50 (MV4-11 cellular proliferative assay)
Procedure: An MV4-11 proliferation assay was used to test the ability of compounds to reduce cell viability. MV4-11 cells (ATCC #CRL9591) were grown in IMDM medium (11510596, Gibco) supplemented with 10% fetal bovine serum (F7524, Gibco) and 1% Penicillin/Streptomycin (15140-122, Gibco) at 37° C. with 5% CO2. Cells were seeded in 384-well Elplasia plates (4447, Corning) at a density of 50 cells/well and treated with vehicle (DMSO) or compounds (10 serial semi-log dilutions, 30 μM as top concentration).
After 120 hours of treatment, cells were incubated for 10 min at RT with the CellTiter-Glo (CTG) reagent (G7571, Promega). Measurement of the luminescence signal was performed on a microplate reader (Ensight, PerkinElmer). CTG reagent measures the amount of ATP, which is directly proportional to the number of cells, to determine the number of viable cells in culture.
The data were analysed as follows:
[formula] • where x is the measured raw signal value of a well, (cr) is the median of the measured signal values for the Central Reference (DMSO) wells on a plate, (sr) is the median of the measured signal values for the Scale Reference (reference compound) wells on a plate.
[formula] • where the experimental set-up assumes the Hill parameters in certain ranges: S0~Central Reference (CR) from normalization (=Bottom), Sinf~Scale Reference (SR) from normalization (=Top), nHill ~1, AC50~within the measured concentration range.

MLLT1 = target: T1, MLLT1 (Homo sapiens, UniProt Q03111); test: MLLT1 degradation assay in MV4-11 cells (JESS, 24 h); assay type: cell-based; design: endogenous in cells; host or cells: MV4-11 (ATCC CRL-9591); conditions: vs DMSO control
T1 sequence (Q03111 1-559): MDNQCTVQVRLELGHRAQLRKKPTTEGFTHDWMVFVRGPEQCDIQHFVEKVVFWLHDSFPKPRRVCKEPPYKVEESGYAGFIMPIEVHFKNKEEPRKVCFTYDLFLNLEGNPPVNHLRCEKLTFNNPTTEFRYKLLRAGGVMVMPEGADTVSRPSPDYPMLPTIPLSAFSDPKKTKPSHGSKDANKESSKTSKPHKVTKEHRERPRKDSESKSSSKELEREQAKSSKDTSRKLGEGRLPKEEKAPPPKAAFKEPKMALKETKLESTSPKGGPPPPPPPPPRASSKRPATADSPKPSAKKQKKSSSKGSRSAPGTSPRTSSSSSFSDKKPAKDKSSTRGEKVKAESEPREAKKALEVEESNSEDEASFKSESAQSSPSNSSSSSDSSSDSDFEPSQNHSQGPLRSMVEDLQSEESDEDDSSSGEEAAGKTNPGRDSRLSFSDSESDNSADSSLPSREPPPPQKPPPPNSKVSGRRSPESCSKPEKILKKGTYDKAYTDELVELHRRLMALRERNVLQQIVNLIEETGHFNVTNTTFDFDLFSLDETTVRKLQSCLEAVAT
Summary of the method: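 MV4-11 cells treated at 1000, 100 and 10 nM (0.1% DMSO) for 24 h at 37° C; lysates (4 ug protein) run on JESS capillary immunoassay with MLLT1 and GAPDH antibodies. Peak areas give % degradation versus DMSO, binned A (≥75%) to D (<25%).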

Row | IC50 (MV4-11 cells) [nM] | MLLT1% Degradation @ 0.01 μM (MLLT1) | MLLT1% Degradation @ 0.1 μM (MLLT1) | MLLT1% Degradation @ 1 μM (MLLT1) | SMILES
1 | < 100 | B (Category B: 50%≤B<75% degradation) | A (Category A: A≥75% degradation) | A (Category A: A≥75% degradation) | Cc1nn(CCCCCCCCNc2cccc3c2C(=O)N(C2CCC(=O)NC2=O)C3=O)c2cc(C(=O)Nc3cc4[nH]c(C5CCCN5C)cc4cn3)ccc12 (racemic) [Example 2, rac-1-(8-{[2-(2,6-dioxopiperidin-3-yl)-1,3-dioxoisoindol-4-yl]amino}octyl)-3-methyl-N-[2-(1-methylpyrrolidin-2-yl)-1H-pyrrolo[3,2-c]pyridin-6-yl]indazole-6-carboxamide]
2 | < 100 | B (Category B: 50%≤B<75% degradation) | A (Category A: A≥75% degradation) | A (Category A: A≥75% degradation) | Cc1nn(CCCCCCCCNc2cccc3c2C(=O)N(C2CCC(=O)NC2=O)C3=O)c2cc(C(=O)Nc3cc4[nH]c([C@H]5CCCN5C)cc4cn3)ccc12 (stereo partly drawn) [Example 3, 1-(8-{[2-(2,6-dioxopiperidin-3-yl)-1,3-dioxoisoindol-4-yl]amino}octyl)-3-methyl-N-{2-[(2R)-1-methylpyrrolidin-2-yl]-1H-pyrrolo[3,2-c]pyridin-6-yl}indazole-6-carboxamide]
3 | < 100 |  |  |  | Cc1nn(C2CCN(CCCNc3cccc4c3C(=O)N(C3CCC(=O)NC3=O)C4=O)CC2)c2cc(C(=O)Nc3cc4[nH]c([C@H]5CCCN5C)cc4cn3)ccc12 (stereo partly drawn) [Example 7, 1-[1-(3-{[2-(2,6-dioxopiperidin-3-yl)-1,3-dioxoisoindol-4-yl]amino}propyl)piperidin-4-yl]-3-methyl-N-{2-[(2R)-1-methylpyrrolidin-2-yl]-1H-pyrrolo[3,2-c]pyridin-6-yl}indazole-6-carboxamide]
4 | < 100 |  |  |  | Cc1nn(CCCCCCCCOc2ccc3c(c2)C(=O)N(C2CCC(=O)NC2=O)C3=O)c2cc(C(=O)Nc3cc4[nH]c([C@H]5CCCN5C)cc4cn3)ccc12 (stereo partly drawn) [Example 8, 1-(8-{[2-(2,6-dioxopiperidin-3-yl)-1,3-dioxoisoindol-5-yl]oxy}octyl)-3-methyl-N-{2-[(2R)-1-methylpyrrolidin-2-yl]-1H-pyrrolo[3,2-c]pyridin-6-yl}indazole-6-carboxamide]
5 | < 100 |  |  |  | Cc1nn(CCCCCCCCOc2cccc3c2C(=O)N(C2CCC(=O)NC2=O)C3=O)c2cc(C(=O)Nc3cc4[nH]c([C@H]5CCCN5C)cc4cn3)ccc12 (stereo partly drawn) [Example 12, 1-(8-((2-(2,6-dioxopiperidin-3-yl)-1,3-dioxoisoindolin-4-yl)oxy)octyl)-3-methyl-N-(2-((R)-1-methylpyrrolidin-2-yl)-1H-pyrrolo[3,2-c]pyridin-6-yl)-1H-indazole-6-carboxamide]
6 | < 100 |  |  |  | Cc1nn(CCCNc2cccc3c2C(=O)N(C2CCC(=O)NC2=O)C3=O)c2cc(C(=O)Nc3cc4[nH]c([C@H]5CCCN5C)cc4cn3)ccc12 (stereo partly drawn) [Example 13, 1-(3-((2-(2,6-dioxopiperidin-3-yl)-1,3-dioxoisoindolin-4-yl)amino)propyl)-3-methyl-N-(2-((R)-1-methylpyrrolidin-2-yl)-1H-pyrrolo[3,2-c]pyridin-6-yl)-1H-indazole-6-carboxamide]
7 | < 100 |  |  |  | Cc1nn(CCCCCCCCNc2ccc3c(c2)C(=O)N(C2CCC(=O)NC2=O)C3=O)c2cc(C(=O)Nc3cc4[nH]c([C@H]5CCCN5C)cc4cn3)ccc12 (stereo partly drawn) [Example 14, 1-(8-{[2-(2,6-dioxopiperidin-3-yl)-1,3-dioxoisoindol-5-yl]amino}octyl)-3-methyl-N-{2-[(2R)-1-methylpyrrolidin-2-yl]-1H-pyrrolo[3,2-c]pyridin-6-yl}indazole-6-carboxamide]
8 | < 100 |  |  |  | Cc1nn(CCCCCCCCNc2cccc3c2CN(C2CCC(=O)NC2=O)C3=O)c2cc(C(=O)Nc3cc4[nH]c([C@@H]5CCCN5C)cc4cn3)ccc12 (stereo partly drawn) [Example 17, 1-(8-{[2-(2,6-dioxopiperidin-3-yl)-1-oxo-3H-isoindol-4-yl]amino}octyl)-3-methyl-N-{2-[(2S)-1-methylpyrrolidin-2-yl]-1H-pyrrolo[3,2-c]pyridin-6-yl}indazole-6-carboxamide]
9 | < 100 |  |  |  | Cc1nn(CCCCN2CCN(c3ccc4c(c3)C(=O)N(C3CCC(=O)NC3=O)C4=O)CC2)c2cc(C(=O)Nc3cc4[nH]c([C@H]5CCCN5C)cc4cn3)ccc12 (stereo partly drawn) [Example 19, 1-(4-{4-[2-(2,6-dioxopiperidin-3-yl)-1,3-dioxoisoindol-5-yl]piperazin-1-yl}butyl)-3-methyl-N-{2-[(2R)-1-methylpyrrolidin-2-yl]-1H-pyrrolo[3,2-c]pyridin-6-yl}indazole-6-carboxamide]
10 |  | B (Category B: 50%≤B<75% degradation) | B (Category B: 50%≤B<75% degradation) | A (Category A: A≥75% degradation) | Cc1nn(CCCCCCCC#Cc2cccc(C3CCC(=O)NC3=O)n2)c2cc(C(=O)Nc3cc4[nH]c([C@H]5CCCN5C)cc4cn3)ccc12 (stereo partly drawn) [Example 62, 1-(9-(6-(2,6-dioxopiperidin-3-yl)pyridin-2-yl)non-8-yn-1-yl)-3-methyl-N-(2-((R)-1-methylpyrrolidin-2-yl)-1H-pyrrolo [3,2-c]pyridin-6-yl)-1H-indazole-6-carboxamide]
11 |  | D (Category D: D<25% degradation) | B (Category B: 50%≤B<75% degradation) | A (Category A: A≥75% degradation) | Cc1nn(CCCCCCCC#Cc2cccc(N3CCC(=O)NC3=O)c2F)c2cc(C(=O)Nc3cc4[nH]c([C@H]5CCCN5C)cc4cn3)ccc12 [Example 63, (R)-1-(9-(3-(2,4-dioxotetrahydropyrimidin-1 (2H)-yl)-2-fluorophenyl)non-8-yn-1-yl)-3-methyl-N-(2-(1-methylpyrrolidin-2-yl)-1H-pyrrolo [3,2-c]pyridin-6-yl)-1H-indazole-6-carboxamide]
12 |  | C (Category C: 25%≤C<50% degradation) | B (Category B: 50%≤B<75% degradation) | A (Category A: A≥75% degradation) | Cc1nn(CCCCCCCC#Cc2cc3c(cc2F)c(N2CCC(=O)NC2=O)nn3C)c2cc(C(=O)Nc3cc4[nH]c([C@H]5CCCN5C)cc4cn3)ccc12 [Example 65, (R)-1-(9-(3-(2,4-dioxotetrahydropyrimidin-1 (2H)-yl)-5-fluoro-1-methyl-1H-indazol-6-yl)non-8-yn-1-yl)-3-methyl-N-(2-(1-methylpyrrolidin-2-yl)-1H-pyrrolo[3,2-c]pyridin-6-yl)-1H-indazole-6-carboxamide]
13 |  | B (Category B: 50%≤B<75% degradation) | A (Category A: A≥75% degradation) | A (Category A: A≥75% degradation) | Cc1nn(CCCCCCC2CCN(c3cccc(C(=O)N[C@H]4CCC(=O)NC4=O)n3)CC2)c2cc(C(=O)Nc3cc4[nH]c([C@H]5CCCN5C)cc4cn3)ccc12 [Example 73, 1-(6-(1-(6-(((S)-2,6-dioxopiperidin-3-yl)carbamoyl)pyridin-2-yl)piperidin-4-yl)hexyl)-3-methyl-N-(2-((R)-1-methylpyrrolidin-2-yl)-1H-pyrrolo[3,2-c]pyridin-6-yl)-1H-indazole-6-carboxamide]
